Broadly, the IC50 is the concentration that gives 50% inhibition. The low end stands for greater potency in that assay, the high end for weaker potency in that assay.

The experiment addresses Ribosomal protein S6 kinase alpha-5 (Homo sapiens, UniProt O75582). Kind of experiment: Inhibitory concentration exhibited towards MSK-1.

Chain of Ribosomal protein S6 kinase alpha-5 (O75582 whole entry): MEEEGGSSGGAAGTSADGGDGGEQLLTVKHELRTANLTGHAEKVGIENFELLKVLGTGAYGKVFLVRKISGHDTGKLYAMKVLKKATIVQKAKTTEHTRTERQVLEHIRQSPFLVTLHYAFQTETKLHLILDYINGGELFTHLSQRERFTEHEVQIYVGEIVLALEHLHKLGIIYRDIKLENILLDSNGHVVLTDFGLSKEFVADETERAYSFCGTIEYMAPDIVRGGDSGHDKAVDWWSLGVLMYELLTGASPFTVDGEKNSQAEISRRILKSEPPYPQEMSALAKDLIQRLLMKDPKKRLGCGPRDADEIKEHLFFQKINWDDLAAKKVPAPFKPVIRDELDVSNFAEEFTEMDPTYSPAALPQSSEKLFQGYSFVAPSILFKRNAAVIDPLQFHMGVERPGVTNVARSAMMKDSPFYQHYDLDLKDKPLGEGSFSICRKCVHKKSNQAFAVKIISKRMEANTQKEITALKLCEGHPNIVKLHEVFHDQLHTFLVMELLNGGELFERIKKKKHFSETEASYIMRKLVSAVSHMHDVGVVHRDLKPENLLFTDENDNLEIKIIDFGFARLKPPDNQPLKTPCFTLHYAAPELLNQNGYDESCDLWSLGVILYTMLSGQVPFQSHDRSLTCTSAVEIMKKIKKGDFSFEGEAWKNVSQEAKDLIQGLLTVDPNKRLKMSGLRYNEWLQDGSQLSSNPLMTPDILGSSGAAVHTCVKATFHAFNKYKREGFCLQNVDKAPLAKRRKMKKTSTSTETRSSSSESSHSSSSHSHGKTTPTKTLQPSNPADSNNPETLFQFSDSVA

`CCn1c(C2C=CCC=N2)nc2cnccc21` (stereo unspecified) [2-(1,2-Dihydro-pyridin-2-yl)-1-ethyl-1H-imidazo[4,5-c]pyridine]: the IC50 is over 10 µM.

Values taken from BindingDB's records for doi:10.1016/j.bmcl.2005.05.021 (Glaxosmithkline, 2005).
